Literature values as cited in patent US20110178167A1, “METHOD FOR INHIBITING ACTIVITY AND/OR EXPRESSION OF MATRIX METALLOPROTEINASE, INHIBITING PHOSPHORYLATION OF MITOGEN-ACTIVATED PROTEIN KINASE, AND/OR PROMOTING EXPRESSION OF COLLAGEN USING TERMINALIA CATAPPA LEAF EXTRACT” (priority 2010, published 2011).

System: matrix metalloproteinase-1
Details: related art

Compound	expression of matrix metalloproteinase-1
O=c1cc(-c2ccc(O)c(-c3c(O)c(O)c(O)c4c(=O)cc(-c5ccc(O)cc5)oc34)c2)oc2cc(O)cc(O)c12 [sumaflavone]	inhibited
C[C@@H]1CC[C@]2(C(=O)O[C@@H]3O[C@H](CO)[C@@H](O)[C@H](O)[C@H]3O)CC[C@]3(C)C(=CC[C@@H]4[C@@]5(C)CC[C@H](O[C@@H]6OC[C@H](O)[C@H](O)[C@H]6O)C(C)(C)[C@@H]5CC[C@]43C)[C@@H]2[C@]1(C)O [ziyuglycoside-I]	inhibited
